# According to patent publication US9695426B2, “Biofuel production by recombinant microorganisms” (The Regents of the University of California, priority 2007, dated 2017):
# B1: TdcB: E. coli's catabolic threonine dehydratase (protein, UniProt P0AGF6 1-329, looked up)
# L-threonine dehydratase …: MHITYDLPVAIDDIIEAKQRLAGRIYKTGMPRSNYFSERCKGEIFLKFENMQRTGSFKIRGAFNKLSSLTDAEKRKGVVACSAGNHAQGVSLSCAMLGIDGKVVMPKGAPKSKVAATCDYSAEVVLHGDNFNDTIAKVSEIVEMEGRIFIPPYDDPKVIAGQGTIGLEIMEDLYDVDNVIVPIGGGGLIAGIAVAIKSINPTIRVIGVQSENVHGMAASFHSGEITTHRTTGTLADGCDVSRPGNLTYEIVRELVDDIVLVSEDEIRNSMIALIQRNKVVTEGAGALACAALLSGKLDQYIQNRKTVSIISGGNIDLSRVSQITGFVDA
# What was measured:
# [1] = test system: native 1-butanol producers; details: cited from earlier work
# [2] = test system: E. coli culture expressing kivd; experiment: Alcohol productions with the supply of 2-keto acids; assay type: cell-based; details: 2-keto acid added to E. coli culture expressing kivd
# Excerpt: The addition of various 2-keto acids (see Table 13) to the E. coli culture expressing kivd confirmed the specific production of the corresponding alcohols by 2- to 23-fold.
# AHAS I = AHAS I (Escherichia coli, UniProt P08142); details: read-out: Km value for 2-ketobutyrate; cited from earlier work
# Sequence of AHAS I (P0ADF8 whole entry): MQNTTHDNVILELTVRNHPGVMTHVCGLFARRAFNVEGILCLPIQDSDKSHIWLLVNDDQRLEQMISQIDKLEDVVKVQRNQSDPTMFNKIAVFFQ
# Sequence of AHAS I (P08142 whole entry): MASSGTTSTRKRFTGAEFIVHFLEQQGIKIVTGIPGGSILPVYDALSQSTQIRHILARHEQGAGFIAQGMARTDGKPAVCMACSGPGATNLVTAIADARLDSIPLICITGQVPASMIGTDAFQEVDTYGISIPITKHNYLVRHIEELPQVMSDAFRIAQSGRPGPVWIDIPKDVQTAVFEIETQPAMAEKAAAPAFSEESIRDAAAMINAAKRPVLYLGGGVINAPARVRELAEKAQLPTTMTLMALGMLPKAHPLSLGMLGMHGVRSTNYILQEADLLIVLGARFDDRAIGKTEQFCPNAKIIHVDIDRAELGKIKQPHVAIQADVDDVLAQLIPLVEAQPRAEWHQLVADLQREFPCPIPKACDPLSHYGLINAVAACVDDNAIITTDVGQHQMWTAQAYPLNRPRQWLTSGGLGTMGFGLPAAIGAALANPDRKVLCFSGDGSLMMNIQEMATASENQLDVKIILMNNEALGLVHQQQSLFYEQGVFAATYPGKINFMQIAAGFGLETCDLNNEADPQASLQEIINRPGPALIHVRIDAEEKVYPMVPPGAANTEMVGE
# E. coli TdcB = E. coli TdcB (Escherichia coli, UniProt P0AGF6); details: E. coli TdcB in the absence of AMP; cited from earlier work
# E. coli IlvA = E. coli IlvA (Escherichia coli, UniProt P04968); details: purified E. coli IlvA in the absence of isoleucine; cited from earlier work
# Sequence of E. coli IlvA (P04968 whole entry): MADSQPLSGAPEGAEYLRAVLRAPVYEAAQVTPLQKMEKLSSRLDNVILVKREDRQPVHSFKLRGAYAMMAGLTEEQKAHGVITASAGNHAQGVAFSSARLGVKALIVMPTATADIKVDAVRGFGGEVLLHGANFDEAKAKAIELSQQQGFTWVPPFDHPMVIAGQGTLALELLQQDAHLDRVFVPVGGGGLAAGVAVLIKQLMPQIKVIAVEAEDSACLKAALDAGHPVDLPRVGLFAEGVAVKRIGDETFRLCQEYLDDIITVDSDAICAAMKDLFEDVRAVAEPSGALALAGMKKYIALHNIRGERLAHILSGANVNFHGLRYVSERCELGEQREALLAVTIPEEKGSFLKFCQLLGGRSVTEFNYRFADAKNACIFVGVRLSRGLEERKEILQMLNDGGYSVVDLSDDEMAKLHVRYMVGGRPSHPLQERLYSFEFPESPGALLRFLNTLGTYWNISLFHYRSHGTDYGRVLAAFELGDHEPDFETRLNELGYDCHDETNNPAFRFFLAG
# E. coli BW25113 = experiment: propanol and butanol production via the threonine pathway with alternative enzymes; assay type: cell-based; details: BW ΔmetA, Δtdh, ΔilvB, ΔilvI; tdcB with leuABCD on pCS20; 72 hours
# Protocol: For some alcohol fermentation experiments, single colonies were picked from LB plates and inoculated into 3 ml of LB media with the appropriate antibiotics (ampicillin 100 μg/ml, kanamycin 50 μg/ml, and spectinomycin 50 μg/ml). The overnight culture grown in LB at 37° C. in a rotary shaker (250 rpm) was then inoculated (1% vol/vol) into 20 ml of M9 medium (6 g Na2HPO4, 3 g KH2PO4, 0.5 g NaCl, 1 g NH4Cl, 1 mM MgSO4, 10 mg vitamin B1 and 0.1 mM CaCl2 per liter of water) containing 30 g/L glucose, 5 g/L yeast extract, appropriate antibiotics, and 1000× Trace Metal Mix A5 (2.86 g H3BO3, 1.81 g MnCl2.4H2O, 0.222 g ZnSO4.7H2O, 0.39 g Na2MoO4.2H2O, 0.079 g CuSO4.5H2O, 49.4 mg Co(NO3)2.6H2O per liter water) in 250 ml conical flask. The culture was allowed to grow at 37° C. in a rotary shaker (250 rpm) to an OD600 of 0.4˜0.6, then 12 ml of the culture was transferred to a 250 ml screw capped conical flask and induced with 1 mM IPTG. The induced cultures were grown at 30° C. in a rotary shaker (240 rpm). Samples were taken throughout the next three to four days by opening the screwed caps of the flasks, and culture broths were either centrifuged or filtered to retrieve the supernatant. […]
# Metabolite Detections. The produced alcohol compounds were quantified by a gas chromatograph (GC) equipped with flame ionization detector. […]
molecule,measurement,setting,value
CCCCO [1-butanol],tolerated 1-butanol concentration,[1],up to 2%
CCC(=O)C(=O)O [2-ketobutyrate],Product 1-butanol,[2],492 µM
same,Product 1-propanol,[2],2138 µM
same,Product 2-methyl-1-butanol,[2],1315 µM
same,Product 2-phenylethanol,[2],26 µM
same,Product isobutanol,[2],98 µM
same,Km,AHAS I,~5 mM
C[C@@H](O)[C@H](N)C(=O)O [threonine],Km,E. coli TdcB,20 mM
same,Km,E. coli IlvA,8 mM
B1,lower production of both target alcohols compared to IlvA,E. coli BW25113,70%
